Measured values from patent publication US9029388B2, “Condensed heterocyclic compound” (Takeda Pharmaceutical Company Limited, priority 2011, dated 2015).

Experiments:
human PDE10A enzyme = molecular target: T1, human PDE10A enzyme (Homo sapiens, UniProt Q9Y233); experiment: PDE10A enzyme activity inhibition test (Scintillation Proximity Assay, [3H]cGMP substrate); type: biochemical; conditions: control without compound = 0%, without compound and enzyme = 100%; for inhibition at 0.1 µM: compound 0.1 μM, read-out: Inhibitory rate (%) (0.1 μM); for inhibition at 10 µM: compound 10 μM, read-out: Inhibitory rate (%) (10 μM)
T1 construct: Human PDE10A full-length gene was transfected into Sf9 or COS-7 cells; His-tag; made in house; host or cells: Sf9 or COS-7 cells
Procedure: Human PDE10A full-length gene was transfected into Sf9 or COS-7 cells. The cells were disrupted and centrifuged, and human PDE10A enzyme was obtained from the residue. The enzyme extracted from Sf9 cells was partially purified using His-tag affinity column. The enzyme was stored at −70° C. until use.
The PDE 10A enzyme activity was measured using an Scintillation Proximity Assay (SPA, GE Healthcare). To measure the inhibitory activity of the test compound, 10 μL of serially diluted test compound was reacted with 20 μL of PDE 10A enzyme in an assay buffer (50 mM HEPES-NaOH, 8.3 mM MgCl2, 1.7 mM EGTA, 0.1% BSA (pH 7.4)) for 30 min at room temperature. The final concentration of DMSO in the reaction mixture was 1%.
The compounds were evaluated in duplicate in 96-well half-area plates (Corning). To start the reaction, 10 μL of substrate [3H] cGMP (25 or 50 nM; GE Healthcare and PerkinElmer, respectively) was added thereto to the total volume of 40 μL. After 60 min of reaction at room temperature, yttrium SPA beads containing zinc sulphate were added (6 mg/mL, 20 μL) to terminate the reaction. After standing still for 1 hr, the measurement was performed using a scintillation counter (PerkinElmer) and the inhibition rate was calculated. As for the inhibitory rate, the value without addition of the compound (control) was 0%, and that without addition of the compound and enzyme was 100%.

[1] = tested on: hyperlocomotion induced by MK-801; experiment: Suppressive action on hyperlocomotion induced by MK-801; type: in vivo, rat; conditions: male SD rats; 1 mg/kg p.o., 60 min before MK-801 (0.3 mg/kg, s.c.); vs vehicle, Student's t-test P<0.05; FIG. 1
Text: Male SD rats were purchased from Charles River Laboratories Japan, Inc. (Kanagawa, Japan), and used for the experiment at the age of 8 weeks. After arrival at the vivarium, the animals were acclimated for at least 1 week. The animals were reared under a 12:12 hr light/dark cycle in a temperature- and humidity-controlled laboratory and allowed to freely take food and water.
Example 14 was suspended in 0.5% (w/v) aqueous methylcellulose solution and orally administered (p.o.). (+)-MK-801 hydrogen maleate (MK-801, Sigma-Aldrich, St Louis, State of Missouri) was dissolved in saline, and subcutaneously administered (s.c.). All drugs were dosed in a volume of 2 mL/kg body weight for rats.
Hyperlocomotion induced by psychostimulants (e.g., amphetamine, cocaine, methamphetamine, MK-801 and phencyclidine) in rodents is widely used as an animal model of psychosis (Psychopharmacology 1999, vol. 145: 237-250). Using rats, a suppressive action of a compound (Example 14) on the hyperlocomotion induced by MK-801 was tested. Until the start of the test, male SD rats (8-week-old) were acclimated in a locomotor chamber with an infrared sensor set on the upper side (Muromachi Kikai Co., Ltd., Tokyo, Japan). […] Hyperlocomotion was measured every 1 min, and the cumulative count for 120 min from the administration of MK-801 was calculated for each treatment group. […]

T1 sequence (Q9Y233 267-1055): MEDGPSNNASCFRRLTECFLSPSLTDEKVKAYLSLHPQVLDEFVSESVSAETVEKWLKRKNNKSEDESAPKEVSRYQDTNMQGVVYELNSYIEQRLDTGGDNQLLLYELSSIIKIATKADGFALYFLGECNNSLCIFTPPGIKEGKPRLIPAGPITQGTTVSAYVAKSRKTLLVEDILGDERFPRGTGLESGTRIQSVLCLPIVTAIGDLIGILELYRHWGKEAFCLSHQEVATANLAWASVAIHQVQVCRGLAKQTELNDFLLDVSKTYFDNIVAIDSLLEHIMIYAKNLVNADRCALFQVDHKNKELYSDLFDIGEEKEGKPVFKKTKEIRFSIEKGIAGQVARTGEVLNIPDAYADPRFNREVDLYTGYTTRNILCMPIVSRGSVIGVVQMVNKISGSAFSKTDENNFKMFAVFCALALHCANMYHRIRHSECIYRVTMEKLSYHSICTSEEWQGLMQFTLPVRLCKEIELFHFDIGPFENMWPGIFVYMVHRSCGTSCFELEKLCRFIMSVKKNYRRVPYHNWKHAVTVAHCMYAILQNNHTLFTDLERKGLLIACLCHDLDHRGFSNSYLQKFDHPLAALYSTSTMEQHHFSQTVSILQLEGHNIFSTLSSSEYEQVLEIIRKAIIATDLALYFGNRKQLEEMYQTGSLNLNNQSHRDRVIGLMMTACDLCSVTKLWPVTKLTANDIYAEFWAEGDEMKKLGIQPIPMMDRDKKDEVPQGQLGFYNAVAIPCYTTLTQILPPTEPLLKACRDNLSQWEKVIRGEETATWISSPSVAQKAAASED

SMILES | inhibition at 0.1 µM (human PDE10A enzyme) [%] | inhibition at 10 µM (human PDE10A enzyme) [%] | melting point [°C] | suppression of hyperlocomotion induced by MK-801 (cumulative count 0-120 min) [1]
Cc1cn2cccc(-c3ccc(Oc4nc5ccccc5[nH]4)cc3)c2n1 [Example 1, 2-[4-(2-Methylimidazo[1,2-a]pyridin-8-yl)phenoxy]-1H-benzimidazole] | 63 | 98 |  | 
c1ccc2[nH]c(Oc3ccc(-c4cccn5ccnc45)cc3)nc2c1 [Example 2, 2-[4-(Imidazo[1,2-a]pyridin-8-yl)phenoxy]-1H-benzimidazole] | 62 | 98 |  | 
CCn1nc2cccnc2c1-c1ccc(Oc2nc3ccccc3[nH]2)cc1 [Example 3, 3-[4-(1H-benzimidazol-2-yloxy)phenyl]-2-ethyl-2H-pyrazolo[4,3-b]pyridine] | 91 | 102 |  | 
CCn1nc2cccnc2c1-c1ccc(Oc2nc3ccccc3n2C)cc1 [Example 4, 2-Ethyl-3-{4-[(1-methyl-1H-benzimidazol-2-yl)oxy]phenyl}-2H-pyrazolo[4,3-b]pyridine] | 93 | 102 |  | 
c1ccc2[nH]c(Oc3ccc(C4CCCn5ccnc54)cc3)nc2c1 (centres unmarked) [Example 5, 2-[4-(5,6,7,8-Tetrahydroimidazo[1,2-a]pyridin-8-yl)phenoxy]-1H-benzimidazole] | 2 | 51 |  | 
COc1nn(-c2ccc(Oc3nc4ccccc4[nH]3)cc2)c2ncccc12 [Example 6, 1-[4-(1H-benzimidazol-2-yloxy)phenyl]-3-methoxy-1H-pyrazolo[3,4-b]pyridine] | 99 |  |  | 
Cn1c(=O)c2cccnc2n1-c1ccc(Oc2nc3ccccc3[nH]2)cc1 [Example 7, 1-[4-(1H-benzimidazol-2-yloxy)phenyl]-2-methyl-1,2-dihydro-3H-pyrazolo[3,4-b]pyridin-3-one] | 59 |  |  | 
CCc1nn(-c2ccc(Oc3nc4ccccc4n3C)cc2)c2ncccc12 [Example 8, 3-Ethyl-1-{4-[(1-methyl-1H-benzimidazol-2-yl)oxy]phenyl}-1H-pyrazolo[3,4-b]pyridine] | 93 | 104 |  | 
Cn1c(Oc2ccc(-n3c4ncccc4n4ccnc34)cc2)nc2ccccc21 [Example 9, 9-{4-[(1-Methyl-1H-benzimidazol-2-yl)oxy]phenyl}-9H-imidazo[1′,2′:1,2]imidazo[4,5-b]pyridine] | 93 | 96 | 232 to 234 | 
CC(=O)Cn1c(Oc2ccc(-n3c4ncccc4n4ccnc34)cc2)nc2ccccc21 [Example 10, 1-{2-[4-(9H-imidazo[1′,2′:1,2]imidazo[4,5-b]pyridin-9-yl)phenoxy]-1H-benzimidazol-1-yl}propan-2-one] | 104 | 109 | 189 to 192 | 
CC(C)(O)Cn1c(Oc2ccc(-n3c4ncccc4n4ccnc34)cc2)nc2ccccc21 [Example 11, 1-{2-[4-(9H-imidazo[1′,2′:1,2]imidazo[4,5-b]pyridin-9-yl)phenoxy]-1H-benzimidazol-1-yl}-2-methylpropan-2-ol] | 104 | 106 | 208 to 211 | 
CCc1nn(-c2ccc(Oc3nc4cccnc4n3C)cc2)c2ncccc12 [Example 12, 3-Ethyl-1-{4-[(3-methyl-3H-imidazo[4,5-b]pyridin-2-yl)oxy]phenyl}-1H-pyrazolo[3,4-b]pyridine] | 99 | 101 |  | 
Cn1c(Oc2ccc(-n3c4ncccc4n4ccnc34)cc2)nc2cccnc21 [Example 13, 9-{4-[(3-Methyl-3H-imidazo[4,5-b]pyridin-2-yl)oxy]phenyl}-9H-imidazo[1′,2′:1,2]imidazo[4,5-b]pyridine] | 97 | 106 | 228 to 231 | 
COCCn1c(Oc2ccc(-n3c4ncccc4n4ccnc34)cc2)nc2cccnc21 [Example 14, 9-(4-{[3-(2-Methoxyethyl)-3H-imidazo[4,5-b]pyridin-2-yl]oxy}phenyl)-9H-imidazo[1′,2′:1,2]imidazo[4,5-b]pyridine] | 96 | 105 | 178 to 182 | significantly suppressed hyperlocomotion induced by MK-801
Cc1ccnc2c1n1ccnc1n2-c1ccc(Oc2nc3cccnc3n2C)cc1 [Example 15, 5-Methyl-9-{4-[(3-methyl-3H-imidazo[4,5-b]pyridin-2-yl)oxy]phenyl}-9H-imidazo[1′,2′:1,2]imidazo[4,5-b]pyridine] | 97 | 95 | 236 to 239 | 
COCCn1c(Oc2ccc(-n3c4nccc(C)c4n4ccnc34)cc2)nc2cccnc21 [Example 16, 9-(4-{[3-(2-Methoxyethyl)-3H-imidazo[4,5-b]pyridin-2-yl]oxy}phenyl)-5-methyl-9H-imidazo[1′,2′:1,2]imidazo[4,5-b]pyridine] | 98 | 105 | 190 to 192 | 
